Measurements from the supplement of paper PMC10307832.

Legend:
Assay in all cases: relative viability (nuclei count vs DMSO), 5 days (fraction); higher = more cells survive
Tipifarnib + Bortezomib = compound: Cn1cncc1[C@@](N)(c1ccc(Cl)cc1)c1ccc2c(c1)c(-c1cccc(Cl)c1)cc(=O)n2C [Tipifarnib] + CC(C)C[C@H](NC(=O)[C@H](Cc1ccccc1)NC(=O)c1cnccn1)B(O)O [Bortezomib] (partner 0.002 µM)
How it was run: (§1)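 Relative viability is defined as nuclei in treated wells over nuclei in vehicle wells. Duplicate plates were run and medians reported. Lung cancer cell lines in 1536-well plates were dosed by pin tool one day after seeding, with one drug or with a fixed anchor-drug dose plus five library-drug doses (not always all listed) in √10 steps, and nuclei were counted after 5 days.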

Tipifarnib + Pictilisib = compound: Cn1cncc1[C@@](N)(c1ccc(Cl)cc1)c1ccc2c(c1)c(-c1cccc(Cl)c1)cc(=O)n2C [Tipifarnib] + CS(=O)(=O)N1CCN(Cc2cc3nc(-c4cccc5[nH]ncc45)nc(N4CCOCC4)c3s2)CC1 [Pictilisib] (partner 1 µM)
How it was run: as §1

Tipifarnib + Olaparib = compound: Cn1cncc1[C@@](N)(c1ccc(Cl)cc1)c1ccc2c(c1)c(-c1cccc(Cl)c1)cc(=O)n2C [Tipifarnib] + O=C(c1cc(Cc2n[nH]c(=O)c3ccccc23)ccc1F)N1CCN(C(=O)C2CC2)CC1 [Olaparib] (partner 8 µM)
How it was run: as §1

Tipifarnib + Trametinib = compound: Cn1cncc1[C@@](N)(c1ccc(Cl)cc1)c1ccc2c(c1)c(-c1cccc(Cl)c1)cc(=O)n2C [Tipifarnib] + CC(=O)Nc1cccc(-n2c(=O)n(C3CC3)c(=O)c3c(Nc4ccc(I)cc4F)n(C)c(=O)c(C)c32)c1 [Trametinib] (partner 0.02 µM)
How it was run: as §1

Cell Line	relative viability (Tipifarnib + Bortezomib; first compound 0.01 µM)	relative viability (Tipifarnib + Bortezomib; first compound 0.03162 µM)	relative viability (Tipifarnib + Bortezomib; first compound 0.1 µM)	relative viability (Tipifarnib + Bortezomib; first compound 0.3162 µM)	relative viability (Tipifarnib + Bortezomib; first compound 1 µM)	relative viability (Tipifarnib + Pictilisib; first compound 0.01 µM)	relative viability (Tipifarnib + Pictilisib; first compound 0.03162 µM)	relative viability (Tipifarnib + Pictilisib; first compound 0.1 µM)	relative viability (Tipifarnib + Pictilisib; first compound 0.3162 µM)	relative viability (Tipifarnib + Pictilisib; first compound 1 µM)	relative viability (Tipifarnib + Olaparib; first compound 0.01 µM)	relative viability (Tipifarnib + Olaparib; first compound 0.03162 µM)	relative viability (Tipifarnib + Olaparib; first compound 0.1 µM)	relative viability (Tipifarnib + Olaparib; first compound 0.3162 µM)	relative viability (Tipifarnib + Olaparib; first compound 1 µM)	relative viability (Tipifarnib + Trametinib; first compound 0.01 µM)	relative viability (Tipifarnib + Trametinib; first compound 0.03162 µM)	relative viability (Tipifarnib + Trametinib; first compound 0.1 µM)	relative viability (Tipifarnib + Trametinib; first compound 0.3162 µM)	relative viability (Tipifarnib + Trametinib; first compound 1 µM)
ChaGo-K-1	0.976	1	0.954	0.978	0.53	0.694	0.8	0.71	0.618	0.542	0.455	0.406	0.459	0.419	0.373	0.96	0.942	0.868	0.853	0.674
EBC-1	0.46	0.356	0.359	0.295	0.309	0.313	0.199	0.198	0.183	0.242	0.648	0.411	0.332	0.228	0.229					
EKVX	1.13	1.01	0.903	0.699	0.607	0.477	0.4	0.455	0.339	0.355	0.881	0.829	0.682	0.586	0.521	0.261	0.35	0.244	0.298	0.264
EMC-BAC-2	1.03	1	0.937	0.924	0.749	0.573	0.509	0.467	0.525	0.366	0.502	0.441	0.482	0.427	0.429	0.81	0.754	0.655	0.606	0.614
EPLC-272H	0.987	0.195	0.634	0.577	0.311	0.339	0.265	0.392	0.283	0.186	0.86	0.481	0.578	0.35	0.222	0.336	0.274	0.246	0.303	0.234
H3255	0.622	0.647	0.554	0.561	0.344	0.565	0.449	0.416	0.375	0.395	0.606	0.509	0.457	0.397	0.402	0.674	0.576	0.542	0.458	0.471
HARA	1.16	0.938	1.26	1.12	0.55	0.403	0.373	0.313	0.362	0.148	0.842	0.865	0.762	0.996	0.76	0.784	0.77	0.635	0.588	0.508
HCC-15	0.921	0.746	0.868	0.613	0.196	0.629	0.547	0.556	0.426	0.224	0.758	0.75	0.793	0.631	0.56	0.36	0.35	0.273	0.258	0.221
